Target: T1, IMP-1 (Serratia marcescens, UniProt P52699)
T1 sequence (P52699 22-246 limits assumed): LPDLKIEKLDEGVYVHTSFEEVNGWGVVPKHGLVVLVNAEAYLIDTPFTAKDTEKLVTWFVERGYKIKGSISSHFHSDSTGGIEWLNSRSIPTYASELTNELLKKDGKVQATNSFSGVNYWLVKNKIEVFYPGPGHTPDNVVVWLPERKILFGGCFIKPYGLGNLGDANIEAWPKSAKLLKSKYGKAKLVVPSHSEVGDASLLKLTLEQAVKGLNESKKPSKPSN
Assay: Kinetic inhibition assay of IMP-1 (hydrolysis of benzyl penicillin followed at 235 nm), Kic
Format: biochemical
Conditions: not given
Description: The IMP-1 enzyme, lacking the first 21 signal peptide amino acid residues, was expressed and purified using the protocol of Vella et al.[45–46] The reported methods for monitoring of MBLs activities are based on the consequences of the hydrolysis of β-lactam ring of substrates. The MBL-catalysed reaction is usually monitored by following the changing absorbance at the wavelength where the difference in the molar absorptivity, ΔɛM, is maximal or near the maximum value. There are a few β-lactam substrates which can be used for in vitro assays of MBLs inhibitors. CENTA,[47] a type of cephalosporin, and Penicillin G (benzyl penicillin)[48] are well-known substrates due to commercial availability, inexpensive prices and comfort of their syntheses. For this study, Penicillin G was used as CENTA was not compatible with the inhibitor type as reported by Arjomandi et al.[1] The monitoring of hydrolysis of benzyl penicillin by the synthesized compounds was carried out in UV plate at wavelength 235 nm as no chromosphere is released (Figure 7). The concentration of benzyl penicillin is reduced upon hydrolysis by IMP-1 causing a decrease in the absorption at 235 nm over the time, thereby allowing a way to monitor the reaction. Inhibitors of metallo-β-lactamase decrease the rate of hydrolysis of benzyl penicillin, thus, providing a way of measuring the activities of inhibitors against MBLs.
Benzyl penicillin solutions were prepared fresh at the time of assay as their activities will change and stop after 24 h even with keeping in the fridge.[1] In the first step, the inhibitory activities (IC50 values) of the inhibitors 2a–k were measured by a screening assay which evaluated the residual activity of the enzyme. […] Further kinetic analyses then allowed the determination of Kic values of these compounds based on the procedure reported by Arjomandi et al.[1] Inhibition assays for IMP-1 were performed in 96 well 400 µL UV multi-titre plates using a UV multi-plate spectrophotometer. The hydrolysis rate of benzyl penicillin (penicillin G sodium salt) was measured at λ = 235 nm.[49] The initial screening assay (IC50 values) was performed in duplicate, with benzyl penicillin as the substrate and HEPESX (50 mM HEPES, 0.1 M NaCl, […], pH 7.0) as the buffer at 25 °C. The final concentrations of enzyme and benzyl penicillin were 10 nM and 500 µM, respectively. Bovine serum albumin (a final concentration of 20 µg/mL) was added to the enzyme for stability. For each well, 196 µL substrate and 4 µL inhibitor were added followed by the addition of 200 µL of enzyme. The rate of the hydrolysis of substrate was recorded for 5 min. To measure Kic value, four solutions with different concentrations for each molecule were prepared and then were assayed based on the aforementioned procedure while the concentrations of substrate in wells were 200, 400, 600, 800 and 1000 µM. The raw kinetic data were analysed by non-linear regression using the Win Curve Fit program (Kevin Raner Software) and the Kic value was calculated for each molecule.[1] The Kic values of molecules 2a–k are in the range of 1.04–4.77 µM which was unexpected based on the computational modelling results. Although the introduced compounds are still potent enzyme-based inhibitors, they are nearly at least ten times less as potent as the lead inhibitor is. Due to the less inhibition activities of the synthesized molecules in compare to the reference compound, their cell-based assays have not carried out.
For `Cc1ccccc1COc1ccc(C[C@H](NC(=O)CS)C(=O)O)cc1` [Compound 2a, (S)-2-(2-Mercaptoacetamido)-3-(4-((2-methylbenzyl)oxy)phenyl)propanoic acid], the Ki was 1040 ± 280 nM.
Compound `Cc1cccc(COc2ccc(C[C@H](NC(=O)CS)C(=O)O)cc2)c1` [Compound 2b, (S)-2-(2-Mercaptoacetamido)-3-(4-((3-methylbenzyl)oxy)phenyl)propanoic acid] has a Ki of 1150 ± 490 nM.
Work on `Cc1ccc(COc2ccc(C[C@H](NC(=O)CS)C(=O)O)cc2)cc1` [Compound 2c, (S)-2-(2-Mercaptoacetamido)-3-(4-((4-methylbenzyl)oxy)phenyl)propanoic acid] yielded a Ki of 1070 ± 210 nM.
For `O=C(CS)N[C@@H](Cc1ccc(OCc2ccccc2Cl)cc1)C(=O)O` [Compound 2d, (S)-3-(4-((2-Chlorobenzyl)oxy)phenyl)-2-(2-mercaptoacetamido)propanoic acid], the Ki was 1810 ± 900 nM.
Work on `O=C(CS)N[C@@H](Cc1ccc(OCc2cccc(Cl)c2)cc1)C(=O)O` [Compound 2e, (S)-3-(4-((3-chlorobenzyl)oxy)phenyl)-2–(2-mercaptoacetamido)propanoic acid] yielded a Ki of 4770 ± 2810 nM.
Compound `O=C(CS)N[C@@H](Cc1ccc(OCc2ccc(Cl)cc2)cc1)C(=O)O` [Compound 2f, (S)-3-(4-((4-Chlorobenzyl)oxy)phenyl)-2-(2-mercaptoacetamido)propanoic acid] has a Ki of 3200 ± 590 nM.
With `O=C(CS)N[C@@H](Cc1ccc(OCc2ccccc2[N+](=O)[O-])cc1)C(=O)O` [Compound 2g, (S)-2-(2-Mercaptoacetamido)-3-(4-((2-nitrobenzyl)oxy)phenyl)propanoic acid] the Ki was 1650 ± 340 nM.
Compound `O=C(CS)N[C@@H](Cc1ccc(OCc2cccc([N+](=O)[O-])c2)cc1)C(=O)O` [Compound 2h, (S)-2-(2-Mercaptoacetamido)-3-(4-((3-nitrobenzyl)oxy)phenyl)propanoic acid] has a Ki of 2860 ± 1230 nM.
Compound `O=C(CS)N[C@@H](Cc1ccc(OCc2ccc([N+](=O)[O-])cc2)cc1)C(=O)O` [Compound 2i, (S)-2-(2-Mercaptoacetamido)-3-(4-((4-nitrobenzyl)oxy)phenyl)propanoic acid] has a Ki of 3200 ± 620 nM.
For `O=C(CS)N[C@@H](Cc1ccc(OCc2cccc(Br)c2)cc1)C(=O)O` [Compound 2j, (S)-3-(4-((3-Bromobenzyl)oxy)phenyl)-2-(2-mercaptoacetamido)propanoic acid], the Ki was 3140 ± 710 nM.
`O=C(CS)N[C@@H](Cc1ccc(OCc2ccc(Br)cc2)cc1)C(=O)O` [Compound 2k, (S)-3-(4-((4-Bromobenzyl)oxy)phenyl)-2-(2-mercaptoacetamido)propanoic acid] showed a Ki of 3300 ± 900 nM.

Target: T1, IMP-1
Assay: not given
Conditions: read-out: Kic; against IMP-1; reference inhibitor; cited from earlier work
In the case of `O=C(CS)N[C@@H](Cc1ccc(OCc2ccccc2)cc1)C(=O)O` [Compound 1, L-benzyl tyrosine thiol carboxylic acid], the Ki is listed as 86 ± 24 nM.
